# Assay results: US9527869B2, “Indolizine derivatives as phoshoinositide 3-kinases inhibitors” (CHIESI FARMACEUTICI S.P.A., priority 2014, dated 2016)
# Assays:
# Format in all cases: biochemical
# [1] = target: T1, PI3Kα (Homo sapiens, UniProt P42336); test: In vitro determination of the PI3K enzyme inhibitory activity in the cell free assay (ADP-Glo Kinase Assay), PI3Kα; details: ATP 50 μM, read-out: PI3K alpha inhibition
# T1 construct: purchased Millipore Ltd (Billerica, Mass.)
# Experimental: (§1) In vitro Determination of the PI3K Enzyme Inhibitory Activity in the Cell Free Assay
# (§2) Human recombinant proteins PI3Kα, PI3Kβ, PI3Kγ and PI3Kδ were purchased from Millipore Ltd (Billerica, Mass.). Compounds were dissolved at 0.5 mM in DMSO and were tested at different concentrations for their activity against PI3Ks using the ADP-Glo™ Kinase Assay (Promega, Madison Wis.) according to the manufacturer's instructions.
# (§3) Briefly, the kinase reactions were performed in 384-well white plates (Greiner Bio-One GmbH, Frickenhausen). Each well was loaded with 0.1 μl of test compounds and 2.5 μl of 2× reaction buffer (40 mM Tris pH7.5, 0.5 mM EGTA, 0.5 mM Na3VO4, 5 mM β-glycerophosphate, 0.1 mg/ml BSA, 1 mM DTT), containing 50 μM PI and PS substrates (L-α-phosphatidylinositol sodium salt and L-α-phosphatidyl-L-serine, Sigma-Aldrich, St. Louis Mo.) and the PI3K recombinant proteins (PI3Kγ 0.25 ng/μl, PI3Kδ 1 ng/μl, PI3Kα 0.125 ng/μl, PI3Kβ 1 ng/μl).
# (§4) The reactions were started by adding 2.5 μl of 2×ATP solution to each well (final concentrations: PI3Kγ ATP 30 μM; PI3Kδ ATP 80 μM; PI3KαATP 50 μM; PI3Kβ ATP 100 μM) and incubated for 60 min at room temperature. Subsequently, each kinase reaction was incubated for 40 min with 5 μl ADP-Glo™ Reagent, allowing depletion of unconsumed ATP. Then, the Kinase Detection Reagent (10 μl) was added in each well to convert ADP to ATP and to allow the newly synthesized ATP to be measured using a luciferase/luciferin reaction. Following 60 min incubation, the luminescence signal was measured using a Wallac EnVision® multilabel reader (PerkinElmer, Waltham Mass.).
# (§5) Curve fitting and IC50 calculation were carried out using a four-parameter logistic model in XLfit (IDBS, Guilford, UK) for Microsoft Excel (Microsoft, Redmont, Wash.).
# [2] = target: T2, PI3Kβ (Homo sapiens, UniProt P42338); test: In vitro determination of the PI3K enzyme inhibitory activity in the cell free assay (ADP-Glo Kinase Assay), PI3Kβ; details: ATP 100 μM, read-out: PI3K beta inhibition
# T2 construct: purchased Millipore Ltd (Billerica, Mass.)
# T2 sequence (P42338 whole entry): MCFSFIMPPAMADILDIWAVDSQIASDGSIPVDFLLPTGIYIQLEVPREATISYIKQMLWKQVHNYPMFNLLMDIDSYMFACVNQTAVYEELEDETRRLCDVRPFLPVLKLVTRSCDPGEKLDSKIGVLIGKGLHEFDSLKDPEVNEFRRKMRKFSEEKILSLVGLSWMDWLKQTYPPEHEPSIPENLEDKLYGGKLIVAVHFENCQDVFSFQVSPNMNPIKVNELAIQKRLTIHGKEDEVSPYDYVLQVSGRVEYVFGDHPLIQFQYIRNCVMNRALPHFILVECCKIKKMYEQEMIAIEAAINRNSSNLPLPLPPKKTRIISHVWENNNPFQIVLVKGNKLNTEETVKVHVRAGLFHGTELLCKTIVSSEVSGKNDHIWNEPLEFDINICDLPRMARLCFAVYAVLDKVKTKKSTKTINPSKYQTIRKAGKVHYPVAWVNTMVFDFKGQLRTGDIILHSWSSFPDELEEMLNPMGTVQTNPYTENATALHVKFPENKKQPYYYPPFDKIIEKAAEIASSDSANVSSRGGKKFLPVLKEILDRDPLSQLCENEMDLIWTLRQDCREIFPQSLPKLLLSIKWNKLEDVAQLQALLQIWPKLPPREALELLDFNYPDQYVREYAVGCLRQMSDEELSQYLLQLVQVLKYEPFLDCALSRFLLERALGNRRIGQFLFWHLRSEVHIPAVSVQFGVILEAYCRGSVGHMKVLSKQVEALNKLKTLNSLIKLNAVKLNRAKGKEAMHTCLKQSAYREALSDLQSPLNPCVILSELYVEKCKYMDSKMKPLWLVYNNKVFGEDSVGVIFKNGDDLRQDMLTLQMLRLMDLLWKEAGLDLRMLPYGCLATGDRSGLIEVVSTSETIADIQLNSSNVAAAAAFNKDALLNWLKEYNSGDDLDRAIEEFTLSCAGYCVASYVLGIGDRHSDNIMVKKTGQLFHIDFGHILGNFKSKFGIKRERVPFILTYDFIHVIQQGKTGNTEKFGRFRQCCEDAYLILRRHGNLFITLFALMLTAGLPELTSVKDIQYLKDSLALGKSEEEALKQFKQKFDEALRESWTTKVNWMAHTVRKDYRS
# T2 sequence (P27986 whole entry partner): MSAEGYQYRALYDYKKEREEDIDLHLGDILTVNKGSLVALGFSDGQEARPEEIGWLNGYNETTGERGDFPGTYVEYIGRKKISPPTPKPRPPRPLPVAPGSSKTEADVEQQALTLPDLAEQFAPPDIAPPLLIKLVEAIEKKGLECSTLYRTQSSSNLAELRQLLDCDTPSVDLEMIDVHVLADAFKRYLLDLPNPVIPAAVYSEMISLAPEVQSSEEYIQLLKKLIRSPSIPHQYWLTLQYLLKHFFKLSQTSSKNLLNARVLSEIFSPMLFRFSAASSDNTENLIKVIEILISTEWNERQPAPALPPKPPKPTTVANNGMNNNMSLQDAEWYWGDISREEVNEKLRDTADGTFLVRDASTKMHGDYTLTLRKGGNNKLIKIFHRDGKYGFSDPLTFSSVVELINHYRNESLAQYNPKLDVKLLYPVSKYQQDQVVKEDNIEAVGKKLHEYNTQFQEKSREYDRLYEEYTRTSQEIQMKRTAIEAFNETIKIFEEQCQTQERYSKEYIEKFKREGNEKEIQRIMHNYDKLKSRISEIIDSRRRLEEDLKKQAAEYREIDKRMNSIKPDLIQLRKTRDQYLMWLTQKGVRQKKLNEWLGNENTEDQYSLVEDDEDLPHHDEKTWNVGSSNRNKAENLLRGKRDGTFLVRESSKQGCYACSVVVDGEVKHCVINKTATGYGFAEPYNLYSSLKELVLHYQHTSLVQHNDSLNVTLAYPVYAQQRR
# Experimental: as §1, §2, §3, §4, §5
# [3] = target: T3, PI3Kγ (Homo sapiens, UniProt P48736); test: In vitro determination of the PI3K enzyme inhibitory activity in the cell free assay (ADP-Glo Kinase Assay), PI3Kγ; details: ATP 30 μM, read-out: PI3K gamma inhibition
# T3 construct: purchased Millipore Ltd (Billerica, Mass.)
# T3 sequence (P48736 whole entry): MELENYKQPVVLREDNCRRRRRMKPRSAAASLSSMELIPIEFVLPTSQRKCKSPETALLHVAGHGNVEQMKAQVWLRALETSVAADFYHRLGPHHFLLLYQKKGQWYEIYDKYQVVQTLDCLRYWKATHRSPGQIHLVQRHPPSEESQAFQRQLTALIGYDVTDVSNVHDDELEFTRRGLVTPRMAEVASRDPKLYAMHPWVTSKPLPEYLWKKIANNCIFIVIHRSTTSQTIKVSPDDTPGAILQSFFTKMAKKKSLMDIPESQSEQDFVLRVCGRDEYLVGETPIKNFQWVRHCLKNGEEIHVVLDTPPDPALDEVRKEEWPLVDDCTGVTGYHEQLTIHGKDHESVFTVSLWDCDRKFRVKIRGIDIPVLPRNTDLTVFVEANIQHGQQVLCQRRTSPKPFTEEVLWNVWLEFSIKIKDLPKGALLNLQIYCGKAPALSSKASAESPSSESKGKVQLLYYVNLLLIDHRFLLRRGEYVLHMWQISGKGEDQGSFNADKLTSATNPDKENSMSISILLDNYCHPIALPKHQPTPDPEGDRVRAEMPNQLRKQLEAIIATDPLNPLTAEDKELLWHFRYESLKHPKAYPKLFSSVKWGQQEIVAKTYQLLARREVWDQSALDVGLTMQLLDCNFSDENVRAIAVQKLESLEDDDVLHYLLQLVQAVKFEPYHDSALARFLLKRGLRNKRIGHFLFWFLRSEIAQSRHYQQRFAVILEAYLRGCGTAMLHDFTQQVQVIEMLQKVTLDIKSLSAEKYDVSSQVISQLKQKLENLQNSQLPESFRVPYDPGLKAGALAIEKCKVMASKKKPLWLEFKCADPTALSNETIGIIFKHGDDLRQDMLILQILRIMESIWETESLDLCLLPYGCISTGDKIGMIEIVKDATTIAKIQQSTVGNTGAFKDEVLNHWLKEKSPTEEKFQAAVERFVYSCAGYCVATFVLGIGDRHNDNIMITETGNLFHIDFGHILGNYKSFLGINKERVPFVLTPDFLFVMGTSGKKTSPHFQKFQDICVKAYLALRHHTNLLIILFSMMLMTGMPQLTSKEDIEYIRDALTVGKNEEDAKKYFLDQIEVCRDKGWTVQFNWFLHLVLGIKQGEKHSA
# Experimental: as §1, §2, §3, §4, §5
# [4] = target: T4, PI3Kδ (Homo sapiens, UniProt O00329); test: In vitro determination of the PI3K enzyme inhibitory activity in the cell free assay (ADP-Glo Kinase Assay), PI3Kδ; details: ATP 80 μM, read-out: PI3K delta inhibition
# T4 construct: purchased Millipore Ltd (Billerica, Mass.)
# T4 sequence (O00329 whole entry): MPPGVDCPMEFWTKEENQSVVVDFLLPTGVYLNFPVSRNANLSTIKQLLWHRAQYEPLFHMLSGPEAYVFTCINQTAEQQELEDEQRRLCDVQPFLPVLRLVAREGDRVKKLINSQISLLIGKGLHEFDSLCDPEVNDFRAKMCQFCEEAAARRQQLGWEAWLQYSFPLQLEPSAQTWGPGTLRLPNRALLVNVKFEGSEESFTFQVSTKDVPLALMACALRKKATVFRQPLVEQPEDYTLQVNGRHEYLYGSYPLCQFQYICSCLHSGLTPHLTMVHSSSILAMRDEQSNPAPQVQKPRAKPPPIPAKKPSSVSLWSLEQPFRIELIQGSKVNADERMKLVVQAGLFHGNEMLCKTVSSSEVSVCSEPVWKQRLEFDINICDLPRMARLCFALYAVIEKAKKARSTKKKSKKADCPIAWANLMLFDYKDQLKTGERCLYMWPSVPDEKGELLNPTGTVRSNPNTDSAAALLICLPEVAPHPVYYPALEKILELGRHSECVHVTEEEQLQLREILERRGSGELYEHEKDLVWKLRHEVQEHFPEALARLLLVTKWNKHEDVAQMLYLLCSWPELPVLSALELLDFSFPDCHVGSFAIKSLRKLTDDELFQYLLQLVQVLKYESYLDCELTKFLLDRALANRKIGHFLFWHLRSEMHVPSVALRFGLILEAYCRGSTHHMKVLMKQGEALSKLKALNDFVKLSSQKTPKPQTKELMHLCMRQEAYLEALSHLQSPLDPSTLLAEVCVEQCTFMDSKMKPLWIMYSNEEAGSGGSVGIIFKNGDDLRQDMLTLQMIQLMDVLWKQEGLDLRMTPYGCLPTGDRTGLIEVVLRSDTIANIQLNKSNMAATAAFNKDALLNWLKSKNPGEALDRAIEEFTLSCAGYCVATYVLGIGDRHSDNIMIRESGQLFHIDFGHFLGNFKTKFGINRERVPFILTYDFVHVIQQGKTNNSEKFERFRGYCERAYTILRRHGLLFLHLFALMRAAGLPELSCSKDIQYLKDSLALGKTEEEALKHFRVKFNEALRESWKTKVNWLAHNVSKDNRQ
# T4 sequence (P27986 whole entry partner): as the sequence (P27986 whole entry partner) above
# Experimental: as §1, §2, §3, §4, §5
# T1 sequence (P42336 whole entry): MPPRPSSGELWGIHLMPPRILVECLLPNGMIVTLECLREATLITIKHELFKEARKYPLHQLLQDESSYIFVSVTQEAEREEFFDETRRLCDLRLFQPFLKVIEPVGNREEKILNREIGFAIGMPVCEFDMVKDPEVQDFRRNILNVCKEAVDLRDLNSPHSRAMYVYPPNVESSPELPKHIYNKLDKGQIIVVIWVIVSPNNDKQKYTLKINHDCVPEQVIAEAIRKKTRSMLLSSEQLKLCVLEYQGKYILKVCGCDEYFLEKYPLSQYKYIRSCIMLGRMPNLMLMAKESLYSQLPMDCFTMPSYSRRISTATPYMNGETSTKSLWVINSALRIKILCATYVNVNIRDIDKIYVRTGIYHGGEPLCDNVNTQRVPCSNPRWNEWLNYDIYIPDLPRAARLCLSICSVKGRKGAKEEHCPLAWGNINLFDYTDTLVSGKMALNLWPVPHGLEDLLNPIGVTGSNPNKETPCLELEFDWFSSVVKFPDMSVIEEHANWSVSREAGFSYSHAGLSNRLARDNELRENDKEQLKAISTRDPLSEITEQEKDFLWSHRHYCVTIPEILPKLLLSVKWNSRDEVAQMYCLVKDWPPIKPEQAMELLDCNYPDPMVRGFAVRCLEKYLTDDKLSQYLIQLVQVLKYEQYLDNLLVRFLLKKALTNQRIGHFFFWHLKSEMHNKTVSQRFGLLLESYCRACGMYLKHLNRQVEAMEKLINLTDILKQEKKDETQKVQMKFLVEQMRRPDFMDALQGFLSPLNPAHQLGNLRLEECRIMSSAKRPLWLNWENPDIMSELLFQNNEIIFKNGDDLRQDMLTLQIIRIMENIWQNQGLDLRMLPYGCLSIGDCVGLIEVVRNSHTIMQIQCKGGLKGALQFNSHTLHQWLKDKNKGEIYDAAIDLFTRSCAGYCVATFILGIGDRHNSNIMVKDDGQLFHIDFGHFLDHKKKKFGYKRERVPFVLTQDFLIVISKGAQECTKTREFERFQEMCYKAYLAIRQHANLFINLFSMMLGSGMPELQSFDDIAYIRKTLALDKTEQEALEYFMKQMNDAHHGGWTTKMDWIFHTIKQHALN
# T1 sequence (P27986 whole entry partner): as the sequence (P27986 whole entry partner) above
Compound,IC50 [1],IC50 [2],IC50 [3],IC50 [4]
"N#Cc1c(N)ncnc1NCc1cc2ccccn2c1-c1ccccc1F [Example 25, 4-amino-6-({[3-(2-fluorophenyl)indolizin-2-yl]methyl}amino)pyrimidine-5-carbonitrile]",> 1000 nM,> 1000 nM,> 1000 nM,10 to 1000 nM
"Cc1ccccc1-c1c(CNc2ncnc(N)c2C#N)cc2ccccn12 [Example 26, 4-amino-6-({[3-(2-methylphenyl)indolizin-2-yl]methyl}amino)pyrimidine-5-carbonitrile]",> 1000 nM,> 1000 nM,> 1000 nM,10 to 1000 nM
"N#Cc1c(N)ncnc1NCc1cn2ccccc2c1-c1ccccc1 [Example 27, 4-amino-6-{[(1-phenylindolizin-2-yl)methyl]amino}pyrimidine-5-carbonitrile]",> 1000 nM,> 1000 nM,> 1000 nM,> 1000 nM
"N#Cc1c(N)ncnc1NCc1cn2ccccc2c1-c1cccc(F)c1 [Example 28, 4-amino-6-({[1-(3-fluorophenyl)indolizin-2-yl]methyl}amino)pyrimidine-5-carbonitrile]",> 1000 nM,> 1000 nM,> 1000 nM,10 to 1000 nM
"Cc1ccccc1-c1c(CNc2ncnc(N)c2C#N)cn2ccccc12 [Example 29, 4-amino-6-({[1-(2-methylphenyl)indolizin-2-yl]methyl}amino)pyrimidine-5-carbonitrile]",> 1000 nM,> 1000 nM,> 1000 nM,10 to 1000 nM
"N#Cc1c(N)ncnc1NCc1cn2ccccc2c1-c1ccccn1 [Example 30, 4-amino-6-({[1-(pyridin-2-yl)indolizin-2-yl]methyl}amino)pyrimidine-5-carbonitrile]",> 1000 nM,> 1000 nM,> 1000 nM,10 to 1000 nM
"N#Cc1c(N)ncnc1NCc1cc2ccccn2c1 [Example 31, 4-amino-6-[(indolizin-2-ylmethyl)amino]pyrimidine-5-carbonitrile]",> 1000 nM,> 1000 nM,> 1000 nM,10 to 1000 nM
"CC(Nc1ncnc(N)c1C#N)c1cc2ccccn2c1-c1ccccc1 (stereo not drawn) [Example 32, 4-amino-6-{[1-(3-phenylindolizin-2-yl)ethyl]amino}pyrimidine-5-carbonitrile]",> 1000 nM,> 1000 nM,> 1000 nM,10 to 1000 nM
"CC(Nc1ncnc(N)c1C#N)c1cc2ccccn2c1-c1ccccn1 (stereo not drawn) [Example 33, 4-amino-6-({1-[3-(pyridin-2-yl)indolizin-2-yl]ethyl}amino)pyrimidine-5-carbonitrile]",> 1000 nM,10 to 1000 nM,> 1000 nM,10 to 1000 nM
"CC(Nc1ncnc(N)c1C#N)c1cc2ccccn2c1-c1cccnc1 (stereo not drawn) [Example 34, 4-amino-6-({1-[3-(pyridin-3-yl)indolizin-2-yl]ethyl}amino)pyrimidine-5-carbonitrile]",> 1000 nM,10 to 1000 nM,10 to 1000 nM,10 to 1000 nM
"CC(Nc1ncnc(N)c1C#N)c1cc2ccccn2c1-c1cnccn1 (stereo not drawn) [Example 35, 4-amino-6-({1-[3-(pyrazin-2-yl)indolizin-2-yl]ethyl}amino)pyrimidine-5-carbonitrile]",> 1000 nM,10 to 1000 nM,> 1000 nM,10 to 1000 nM
"CC(Nc1ncnc(N)c1C#N)c1cc2ccccn2c1C1=CCNCC1 (stereo not drawn) [Example 45, 4-amino-6-({1-[3-(1,2,3,6-tetrahydropyridin-4-yl)indolizin-2-yl]ethyl}amino)pyrimidine-5-carbonitrile]",> 1000 nM,10 to 1000 nM,> 1000 nM,10 to 1000 nM

# The remaining lines, values ahead:
IC50 [1],IC50 [2],IC50 [3],IC50 [4],Compound
> 1000 nM,10 to 1000 nM,10 to 1000 nM,10 to 1000 nM,"CC(Nc1ncnc(N)c1C#N)c1cc2ccccn2c1-c1ccncc1 (stereo not drawn) [Example 36, 4-amino-6-({1-[3-(pyridin-4-yl)indolizin-2-yl]ethyl}amino)pyrimidine-5-carbonitrile]"
> 1000 nM,> 1000 nM,> 1000 nM,10 to 1000 nM,"CC(Nc1ncnc(N)c1C#N)c1cc2ccccn2c1-c1cccs1 (stereo not drawn) [Example 37, 4-amino-6-({1-[3-(thiophen-2-yl)indolizin-2-yl]ethyl}amino)pyrimidine-5-carbonitrile]"
> 1000 nM,> 1000 nM,> 1000 nM,10 to 1000 nM,"CC(Nc1ncnc(N)c1C#N)c1cc2ccccn2c1-c1ccsc1 (stereo not drawn) [Example 38, 4-amino-6-({1-[3-(thiophen-3-yl)indolizin-2-yl]ethyl}amino)pyrimidine-5-carbonitrile]"
> 1000 nM,10 to 1000 nM,> 1000 nM,< 10 nM,"CC(Nc1ncnc(N)c1C#N)c1cc2c(F)cccn2c1-c1ccccn1 (stereo not drawn) [Example 39, 4-amino-6-({1-[8-fluoro-3-(pyridin-2-yl)indolizin-2-yl]ethyl}amino)pyrimidine-5-carbonitrile]"
> 1000 nM,> 1000 nM,> 1000 nM,< 10 nM,"Cc1cccc2cc(C(C)Nc3ncnc(N)c3C#N)c(-c3ccccn3)n12 (stereo not drawn) [Example 40, 4-amino-6-({1-[5-methyl-3-(pyridin-2-yl)indolizin-2-yl]ethyl}amino)pyrimidine-5-carbonitrile]"
> 1000 nM,> 1000 nM,> 1000 nM,10 to 1000 nM,"Cc1cccn2c(-c3ccccn3)c(C(C)Nc3ncnc(N)c3C#N)cc12 (stereo not drawn) [Example 41, 4-amino-6-({1-[8-methyl-3-(pyridin-2-yl)indolizin-2-yl]ethyl}amino)pyrimidine-5-carbonitrile]"
> 1000 nM,10 to 1000 nM,> 1000 nM,10 to 1000 nM,"CC(Nc1ncnc(N)c1C#N)c1cc2ccccn2c1C1=CCOCC1 (stereo not drawn) [Example 42, 4-amino-6-({1-[3-(3,6-dihydro-2H-pyran-4-yl)indolizin-2-yl]ethyl}amino)pyrimidine-5-carbonitrile]"
> 1000 nM,10 to 1000 nM,> 1000 nM,10 to 1000 nM,"CCCC#Cc1c(C(C)Nc2ncnc(N)c2C#N)cc2ccccn12 (stereo not drawn) [Example 43, 4-amino-6-({1-[3-(pent-1-yn-1-yl)indolizin-2-yl]ethyl}amino)pyrimidine-5-carbonitrile]"
> 1000 nM,> 1000 nM,10 to 1000 nM,10 to 1000 nM,"CCC(Nc1ncnc(N)c1C#N)c1cc2ccccn2c1-c1ccccn1 (stereo not drawn) [Example 44, 4-amino-6-({1-[3-(pyridin-2-yl)indolizin-2-yl]propyl}amino)pyrimidine-5-carbonitrile]"
> 1000 nM,10 to 1000 nM,10 to 1000 nM,10 to 1000 nM,"CC(Nc1ncnc(N)c1C#N)c1cc2ccccn2c1C#CCO (stereo not drawn) [Example 46, 4-amino-6-({1-[3-(3-hydroxyprop-1-yn-1-yl)indolizin-2-yl]ethyl}amino)pyrimidine-5-carbonitrile]"
> 1000 nM,10 to 1000 nM,> 1000 nM,10 to 1000 nM,"CC(Nc1ncnc(N)c1C=O)c1cc2ccccn2c1-c1ccccn1 (stereo not drawn) [Example 47, 4-amino-6-({1-[3-(pyridin-2-yl)indolizin-2-yl]ethyl}amino)pyrimidine-5-carbaldehyde]"
> 1000 nM,> 1000 nM,> 1000 nM,10 to 1000 nM,"CC(Nc1ncnc(N)c1Br)c1cc2ccccn2c1-c1ccccn1 (stereo not drawn) [Example 48, 5-bromo-4-N-{1-[3-(pyridin-2-yl)indolizin-2-yl]ethyl}pyrimidine-4,6-diamine]"
> 1000 nM,> 1000 nM,> 1000 nM,10 to 1000 nM,"CC(Nc1ncnc(N)c1C(F)(F)F)c1cc2ccccn2c1-c1ccccn1 (stereo not drawn) [Example 49, 4-N-{1-[3-(pyridin-2-yl)indolizin-2-yl]ethyl}-5-(trifluoromethyl)pyrimidine-4,6-diamine]"
> 1000 nM,> 1000 nM,> 1000 nM,10 to 1000 nM,"Cc1c(N)ncnc1NC(C)c1cc2ccccn2c1-c1ccccn1 (stereo not drawn) [Example 50, 5-methyl-4-N-{1-[3-(pyridin-2-yl)indolizin-2-yl]ethyl}pyrimidine-4,6-diamine]"
> 1000 nM,> 1000 nM,> 1000 nM,10 to 1000 nM,"CNC(=O)c1c(N)ncnc1NC(C)c1cc2ccccn2c1-c1ccccn1 (stereo not drawn) [Example 51, 4-amino-N-methyl-6-({1-[3-(pyridin-2-yl)indolizin-2-yl]ethyl}amino)pyrimidine-5-carboxamide]"
